Where “and” joins values, the source holds several entries; their conditions need not be identical. Equal values may be shown once. Square brackets hold non-standard residues; d marks the D form. Peptide text beside a SMILES is read from it. * marks the point of attachment. X1 = COc1ccc(COC(=O)*)cc1; Cbz = O=C(OCc1ccccc1)*; Boc = CC(C)(C)OC(=O)*; Bn = c1ccc(C*)cc1
Tested on: LRF-induced luteinizing hormone (LH) release
Assay: In vitro LRF antagonist test in rat anterior pituitary cell cultures
Format: cell-based
Procedure: Nonapeptides of this invention are screened for LRF antagonist activity in vitro using rat anterior pituitary cell cultures as described by Vale et al. [Endocrinology, 91, 562 (1972)]. The inhibition of LRF-induced luteinizing hormone (LH) release into the culture medium is the endpoint in this in vitro bioassay. Active peptides are then tested in vivo by the procedures of Humphrey et al. [Endocrinology, 92, 1515 (1972)]. Antagonist activity is asessed by the inhibition of LRF-induced LH release in the female rat and LRF-induced ovulation in the rabbit.

[1] = Molar Conc. 1 × 10^-5, LRF 5 × 10^-10, first series (LRF Control 71.56)
[2] = Molar Conc. 1 × 10^-6, LRF 5 × 10^-10, first series (LRF Control 71.56)
[3] = Molar Conc. 1 × 10^-7, LRF 5 × 10^-10, first series (LRF Control 71.56)
[4] = Molar Conc. 1 × 10^-8, LRF 5 × 10^-10, first series (LRF Control 71.56)
[5] = Molar Conc. 1 × 10^-8, LRF 5 × 10^-10, second series of the compound
[6] = Molar Conc. 1 × 10^-9, LRF 5 × 10^-10, second series of the compound
[7] = Molar Conc. 2.5 × 10^-9, LRF 5 × 10^-10, second series of the compound
[8] = Molar Conc. 5 × 10^-9, LRF 5 × 10^-10, second series of the compound
[9] = Molar Conc. 1 × 10^-9, LRF 3.5 × 10^-10
[10] = Molar Conc. 1 × 10^-10, LRF 3.5 × 10^-10
[11] = Molar Conc. 2 × 10^-9, LRF 3.5 × 10^-10
[12] = Molar Conc. 2 × 10^-10, LRF 3.5 × 10^-10
[13] = Molar Conc. 3.5 × 10^-9, LRF 3.5 × 10^-10
[14] = Molar Conc. 3.5 × 10^-10, LRF 3.5 × 10^-10
[15] = Molar Conc. 6 × 10^-9, LRF 3.5 × 10^-10
[16] = Molar Conc. 6 × 10^-10, LRF 3.5 × 10^-10
[17] = Molar Conc. 2.5 × 10^-10, LRF 5 × 10^-10, second series of the compound
[18] = Molar Conc. 5 × 10^-10, LRF 5 × 10^-10, second series of the compound
[19] = Molar Conc. 1 × 10^-8, LRF 3.5 × 10^-10
[20] = Molar Conc. 2.5 × 10^-8, LRF 3.5 × 10^-10
[21] = Molar Conc. 2.5 × 10^-9, LRF 3.5 × 10^-10
[22] = Molar Conc. 2.5 × 10^-10, LRF 3.5 × 10^-10
[23] = Molar Conc. 6 × 10^-8, LRF 3.5 × 10^-10
[24] = Molar Conc. 1.2 × 10^-8, LRF 3.5 × 10^-10
[25] = Molar Conc. 2 × 10^-8, LRF 3.5 × 10^-10
[26] = Molar Conc. 4 × 10^-8, LRF 3.5 × 10^-10
[27] = Molar Conc. 4 × 10^-9, LRF 3.5 × 10^-10
[28] = Molar Conc. 7 × 10^-8, LRF 3.5 × 10^-10
[29] = Molar Conc. 7 × 10^-9, LRF 3.5 × 10^-10

**Q.** What does the source list for `CC[C@H](C)[C@H](NC(=O)OCc1ccccc1)C(=O)N[C@@H](Cc1c[nH]c2ccccc12)C(=O)N[C@@H](CO)C(=O)N[C@@H](Cc1ccc(O)cc1)C(=O)N[C@H](Cc1c[nH]c2ccccc12)C(=O)N[C@@H](CC(C)C)C(=O)N[C@@H](CCCNC(=N)N)C(=O)N1CCC[C@H]1C(=O)NCC(N)=O` [N^α -Benzyloxycarbonyl-L-isoleucyl-L-tryptophyl-L-seryl-L-tyrosyl-D-tryptophyl-L-leucyl-L-arginyl-L-prolyl-glycinamide] (Cbz-IWSY[dW]LRPG-NH2)?
**A.** % LH Release Inhibition [1]: 96%; LH Value [1]: 20.69 ng/mL; % LH Release Inhibition [2]: 96%; LH Value [2]: 20.24 ng/mL; % LH Release Inhibition [3]: 96%; LH Value [3]: 20.50 ng/mL; % LH Release Inhibition [4]: 95%; LH Value [4]: 21.04 ng/mL; % LH Release Inhibition [5]: 98%; LH Value [5]: 14.00 ng/mL; % LH Release Inhibition [6]: 41%; LH Value [6]: 36.46 ng/mL; % LH Release Inhibition [7]: 70%; LH Value [7]: 24.96 ng/mL; % LH Release Inhibition [8]: 87%; LH Value [8]: 18.49 ng/mL

**Q.** Which “% LH Release Inhibition” value [9] does the source give for `CC(C)C[C@H](NC(=O)[C@@H](Cc1ccccc1)NC(=O)[C@H](Cc1ccc(O)cc1)NC(=O)[C@H](CO)NC(=O)[C@H](Cc1c[nH]c2ccccc12)NC(=O)[C@H](COCc1ccccc1)NC(=O)OCc1ccccc1)C(=O)N[C@@H](CCCNC(=N)N)C(=O)N1CCC[C@H]1C(=O)NCC(N)=O.Cl` [N^α -Benzyloxycarbonyl-O-benzyl-L-seryl-L-tryptophyl-L-seryl-L-tyrosyl-D-phenylalanyl-L-leucyl-L-arginyl-L-prolyl-glycinamide hydrochloride] (Cbz-S(Bn)WSY[dF]LRPG-NH2) here?
**A.** 56%

**Q.** What about the “LH Value” [9] of the same compound?
**A.** 17.85 ng/mL

**Q.** And the “% LH Release Inhibition” value [10]?
**A.** 0%

**Q.** And the “LH Value” [10]?
**A.** 34.50 ng/mL

**Q.** And the “% LH Release Inhibition” value [11]?
**A.** 88%

**Q.** What about the “LH Value” [11] of the same compound?
**A.** 9.84 ng/mL

**Q.** And the “% LH Release Inhibition” value [12]?
**A.** 14%

**Q.** What about the “LH Value” [12] of the same compound?
**A.** 28.47 ng/mL

**Q.** What about the “% LH Release Inhibition” value [13] of the same compound?
**A.** 99%

**Q.** And the “LH Value” [13]?
**A.** 6.96 ng/mL

**Q.** What about the “% LH Release Inhibition” value [14] of the same compound?
**A.** 36%

**Q.** What about the “LH Value” [14] of the same compound?
**A.** 23.09 ng/mL

**Q.** And the “% LH Release Inhibition” value [15]?
**A.** 109%

**Q.** And the “LH Value” [15]?
**A.** 4.59 ng/mL

**Q.** And the “% LH Release Inhibition” value [16]?
**A.** 52%

**Q.** And the “LH Value” [16]?
**A.** 18.89 ng/mL

**Q.** How did the “LH Value” (LRF alone, Molar Conc. 3.5 × 10^-10 (control of each series)) turn out when “LRF: luteinizing hormone releasing factor, also called luteinizing hormone releasing hormone (LH-RH); stimulates secretion of luteinizing hormone from the anterior pituitary (QHWSYGLRPG; Gonadoliberin-1; UniProt P01148 24-33, looked up) [reference compound]” was run?
**A.** 26.23 ng/mL and 40.92 ng/mL and 32.11 ng/mL

**Q.** What about the “LH Value” (LRF alone, Molar Conc. 5 × 10^-10 (control of each series)) of the same compound?
**A.** 71.56 ng/mL and 47.31 ng/mL and 52.80 ng/mL

**Q.** How did the “% LH Release Inhibition” value [3] turn out when `COc1ccc(COC(=O)N[C@@H](COCc2ccccc2)C(=O)N[C@@H](Cc2c[nH]c3ccccc23)C(=O)N[C@@H](CO)C(=O)N[C@@H](Cc2ccc(O)cc2)C(=O)N[C@H](Cc2ccccc2)C(=O)N[C@@H](CC(C)C)C(=O)N[C@@H](CCCNC(=N)N)C(=O)N2CCC[C@H]2C(=O)NCC(N)=O)cc1.Cl` [N^α -p-Methoxybenzyloxycarbonyl-O-benzyl-L-seryl-L-tryptophyl-L-seryl-L-tyrosyl-D-phenylalanyl-L-leucyl-L-arginyl-L-prolyl-glycinamide hydrochloride] (X1-S(Bn)WSY[dF]LRPG-NH2) was run?
**A.** 99%

**Q.** What about the “LH Value” [3] of the same compound?
**A.** 18.59 ng/mL

**Q.** What about the “% LH Release Inhibition” value [4] of the same compound?
**A.** 105%

**Q.** And the “LH Value” [4]?
**A.** 15.95 ng/mL

**Q.** And the “% LH Release Inhibition” value [5]?
**A.** 88%

**Q.** And the “LH Value” [5]?
**A.** 16.01 ng/mL

**Q.** And the “% LH Release Inhibition” value [6]?
**A.** 41%

**Q.** What about the “LH Value” [6] of the same compound?
**A.** 32.94 ng/mL

**Q.** And the “% LH Release Inhibition” value [17]?
**A.** 35%

**Q.** What about the “LH Value” [17] of the same compound?
**A.** 34.87 ng/mL

**Q.** What about the “% LH Release Inhibition” value [18] of the same compound?
**A.** 52%

**Q.** What about the “LH Value” [18] of the same compound?
**A.** 28.95 ng/mL

**Q.** Which “% LH Release Inhibition” value [19] does the source give for `CC(C)C[C@H](NC(=O)[C@@H](Cc1c[nH]c2ccccc12)NC(=O)[C@H](Cc1ccc(O)cc1)NC(=O)[C@H](CO)NC(=O)[C@H](Cc1c[nH]c2ccccc12)NC(=O)[C@H](COCc1ccccc1)NC(=O)OC(C)(C)C)C(=O)N[C@@H](CCCNC(=N)N)C(=O)N1CCC[C@H]1C(=O)NCC(N)=O` [N^α -t-Butoxycarbonyl-O-benzyl-L-seryl-L-tryptophyl-L-seryl-L-tyrosyl-D-tryptophyl-L-leucyl-L-arginyl-L-prolyl-glycinamide] (Boc-S(Bn)WSY[dW]LRPG-NH2) here?
**A.** 104%

**Q.** What about the “LH Value” [19] of the same compound?
**A.** 8.96 ng/mL

**Q.** And the “% LH Release Inhibition” value [9]?
**A.** 64%

**Q.** And the “LH Value” [9]?
**A.** 21.44 ng/mL

**Q.** What about the “% LH Release Inhibition” value [20] of the same compound?
**A.** 104%

**Q.** And the “LH Value” [20]?
**A.** 8.95 ng/mL

**Q.** What about the “% LH Release Inhibition” value [21] of the same compound?
**A.** 72%

**Q.** What about the “LH Value” [21] of the same compound?
**A.** 18.85 ng/mL

**Q.** And the “% LH Release Inhibition” value [22]?
**A.** 39%

**Q.** What about the “LH Value” [22] of the same compound?
**A.** 29.05 ng/mL

**Q.** What about the “% LH Release Inhibition” value [23] of the same compound?
**A.** 108%

**Q.** And the “LH Value” [23]?
**A.** 7.80 ng/mL

**Q.** What about the “% LH Release Inhibition” value [15] of the same compound?
**A.** 99%

**Q.** What about the “LH Value” [15] of the same compound?
**A.** 10.64 ng/mL

**Q.** And the “% LH Release Inhibition” value [16]?
**A.** 50%

**Q.** What about the “LH Value” [16] of the same compound?
**A.** 25.53 ng/mL

**Q.** `CC(C)C[C@H](NC(=O)[C@@H](Cc1ccccc1)NC(=O)[C@H](Cc1ccc(O)cc1)NC(=O)[C@H](CO)NC(=O)[C@H](Cc1c[nH]c2ccccc12)NC(=O)[C@H](CCC(N)=O)NC(=O)OCc1ccccc1)C(=O)N[C@@H](CCCNC(=N)N)C(=O)N1CCC[C@H]1C(=O)NCC(N)=O` [N^α -Benzyloxycarbonyl-L-glutaminyl-L-tryptophyl-L-seryl-L-tyrosyl-D-phenylalanyl-L-leucyl-L-arginyl-L-prolyl-glycinamide] (Cbz-QWSY[dF]LRPG-NH2) was tested. Which “% LH Release Inhibition” value [24] did it give?
**A.** 71%

**Q.** What about the “LH Value” [24] of the same compound?
**A.** 13.47 ng/mL

**Q.** What about the “% LH Release Inhibition” value [25] of the same compound?
**A.** 90%

**Q.** What about the “LH Value” [25] of the same compound?
**A.** 10.07 ng/mL

**Q.** What about the “% LH Release Inhibition” value [11] of the same compound?
**A.** 21%

**Q.** What about the “LH Value” [11] of the same compound?
**A.** 22.43 ng/mL

**Q.** What about the “% LH Release Inhibition” value [26] of the same compound?
**A.** 91%

**Q.** And the “LH Value” [26]?
**A.** 9.79 ng/mL

**Q.** What about the “% LH Release Inhibition” value [27] of the same compound?
**A.** 30%

**Q.** And the “LH Value” [27]?
**A.** 20.76 ng/mL

**Q.** And the “% LH Release Inhibition” value [28]?
**A.** 93%

**Q.** What about the “LH Value” [28] of the same compound?
**A.** 9.49 ng/mL

**Q.** And the “% LH Release Inhibition” value [29]?
**A.** 42%

**Q.** What about the “LH Value” [29] of the same compound?
**A.** 18.60 ng/mL
